The record followed here is patent US9241952B2, “Method of treating type II diabetes, hyperglycemia or hypoglycemia by administering a synergistic combination of a sulphonylurea and inulin” (OZSTAR THERAPEUTICS PTY LTD, priority 2010, dated 2016).

Common to all, as to assay type: in vivo, human
Test [1] in a line: FBG, HA1c and lipid profiles by independent pathology laboratory, Example 1 patient (Table 2). Conditions: Nov. 5, 2006; prior to inulin. From the text:
(§1) Other similar devices can also be used.

A short description of test [2]: Fasting blood glucose (FBG), Accu-Chek, T2DM patient on Glibenclamide with inulin (Examples 1 and 3). As for the experimental part:
as §1
The efficacy of inulin on Glibenclamide therapy was investigated. Several years prior to inulin combination therapy, patient's FBG fluctuated drastically and was uncontrolled around 10 mmol/L. Their cholesterol and triglyceride were also very high (Table 2). FIG. 1 depicts the monthly FBG average at indicated time points. Conditions of treatments are described below: • January 2007: Patient's endocrinologist increased the Glibenclamide dose from 2×5 mg to 3×5 mg per day. […] For the first time they were diagnosed with Atrial fibrillation and prescribed with Warfarin. […] Low FBG assisted in excellent recovery. • March 2009: Inulin supply became unavailable.
The patient, as described above in Example 1, was switched over to inulin (Orafti), and combination therapy with Glibenclaminde (5 mg, three times daily) continued following a similar protocol as described above except that the patient received 15 gr/day of inulin (Orafti).

Test [3] can be described thus: FBG, T2DM patient on Gliclazide with inulin (Example 2). As for the experimental part:
as §1
Another patient, who was under Gliclazide therapy (30 mg, once daily) for nearly a decade with uncontrolled blood glucose levels above 9 mmol/L, also began the combination therapy with inulin (JLS). Various blood parameter measurements were as described in Example 1.

`COc1ccc(Cl)cc1C(=O)NCCc1ccc(S(=O)(=O)NC(=O)NC2CCCCC2)cc1` [Glibenclamide]: in test [1], the Cholesterol was 6.2 mmol/L. Also, the “Fasting Glucose” value in test [1] worked out at 10 mmol/L. In test [1], this molecule returned a Triglyceride of 4 mmol/L. In addition, the “average FBG” value in test [2] (February 2007, Glibenclamide 3×5 mg per day) is given as 6 mmol/L; in test [2] (January 2007, Glibenclamide 2×5 mg per day) it was 7.8 mmol/L. For the same molecule, the FBG in test [2] (by October 2009, inulin unavailable from March 2009) is on record as about 7.5 mmol/L; in test [2] (several years prior to inulin combination therapy, uncontrolled), “around 10 mmol/L”.
For `Cc1ccc(S(=O)(=O)NC(=O)NN2CC3CCCC3C2)cc1` (stereo not drawn) [Gliclazide], in test [3] (Gliclazide 30 mg once daily for nearly a decade, uncontrolled), the blood glucose levels entry is reported as “above 9 mmol/L”. In test [3] (Gliclazide 30 mg once daily, before inulin, ± SEM), the FBG level worked out at 9.4 ± 1.82 mmol/L.
